Where only a bound is given, the exact number is not on record here.

The first experiment concerns 80S14 (p21-deficient) cells. Briefly: Cytotoxicity assay using isogenic cell lines: IC50 in 80S14 (p21-deficient) cells, SRB. The format is cell-based, human. Conditions: 80S14 (p21-deficient) cells, 5 days, SRB; class symbols; read-out: IC50 for 80S14. The method, then: Cytotoxicity Assay Using Isogenic Cell Lines: • 1. 80S14 (p21-deficient) cells were cultured in RPMI 1640 medium (Gibco/Invitrogen Life technologies) supplemented with 10% fetal bovine serum (FBS, Gibco) and 10 μg/ml gentamycin (Gibco). Cells were maintained at 37° C. under 7% CO2 • 2. Cells were plated at 6×10^4/ml (0.2 ml/well; 12,000 cells/well) in 96-well microtiter plates (Falcon or Corning/Costar) and incubated at 37° C. overnight (18-24 hours). • 3. 2-5 μl of the test agent [200 μg/ml stock in 20% DMSO/20 mM HEPES, pH 7.5 (Gibco)] was added to each well to achieve a final concentration of 2-5 μg/ml. Cells were incubated with the test compounds for 5 days at 37° C. • 4. Surviving cells were fixed with 50 μl 50% trichloroacetic acid (Sigma; 10% final concentration) for 1 hour at 4° C. • 5. Plates were rinsed twice with water (0.3 ml per wash using MRD8 robot), and allowed to dry. • 6. Sulforhodamine B (SRB) (Sigma; 0.4% in 1% acetic acid, 50 μl per well; MRD8 robot) was added and plates kept at room temperature for 10 minutes. • 7. Excess dye was removed by washing with 1% acetic acid (3 times, 0.3 ml per wash; MRD8 robot) and allowed to dry. • 8. The dye was solubilized in Tris base (Sigma; 10 mM, 150 μl per well). Plates were kept at room temperature for 30 minutes to allow the dye to diffuse. • 9. Absorbance was measured at 540 nm. • 10. The percentage of cells surviving drug treatment relative to control wells (no drug) was determined. • 11. The difference in % cell survival between the two cell lines was calculated. • 12. Compounds producing a difference score of >50 were considered to be selective for the p21-deficient cells and were evaluated further: Determination of selectivity of compounds for p21−/− cells: • 1. 80S14 cells were cultured as described above. • 2. Cells were seeded in 96-well microtiter plates at 12,000 cells/well (either 0.15 ml/well of 8×10^4 cells/ml suspension, or 0.2 ml/well of 6×10^4 cells/ml suspension). Plates were incubated at 37° C. overnight (18-24 hours). • 3. Serial dilutions of the test agent were added to each well. Dilutions were prepared either in 40% DMSO/20% methanol/20 mM HEPES, pH 7.5 (Gibco) or directly in growth medium. One of two dose ranges were used: 5 pM to 50 μM or 170 pg/ml to 10 μg/ml. Cells were incubated with the test compounds for 5 days at 37° C. • 4. Surviving cells were fixed with 50 μl 50% trichloroacetic acid (Sigma; 10% final concentration) for 1 hour at 4° C. • 5. Plates were rinsed extensively in water, and allowed to dry. • 6. Sulforhodamine B (Sigma; 0.4% in 1% acetic acid, 70 μl per well) was added and plates kept at room temperature for 10 minutes. • 7. Excess dye was removed by washing 5 times with 1% acetic acid and plates were allowed to dry. • 8. The dye was solubilized in Tris base (Sigma; 10 mM, 150 μl per well). Plates were placed on a titer plate shaker (Lab Line Instruments) for 5 minutes to allow the dye to diffuse. • 9. Absorbance was measured at 560 nm.
10. The drug concentration that inhibits cell proliferation by 50% relative to untreated controls (IC50) was determined from cytotoxicity curves.
Turning to `C#CCN(C(=O)C1CC1)c1cccc(-c2ccnc3c(C(=O)OCC)cnn23)c1` [Example 258, Ethyl 7-[3-[(cyclopropylcarbonyl)-2-propynylamino]phenyl]-pyrazolo[1,5-a]pyrimidine-3-carboxylic acid], the IC50 was 10 to 50 µM.

Staying with this experiment, now noted: 80S14 p21-deficient cells, 5 days incubation, SRB; read-out: IC50 for 80SI4.
For `O=C(Nc1cccc(-c2ccnc3c(C(=O)c4cccs4)cnn23)c1)OCC(Cl)(Cl)Cl` [Example 18, 2,2,2-trichlroethyl 3-[3-(thien-2-ylcarbonyl)pyrazolo[1,5-a]pyrimidin-7-yl]phenylcarbamate], the half-maximal inhibitory concentration (IC50) is below 1 µM.
Regarding `N[C@H](C(=O)Nc1cccc(-c2ccnc3c(C(=O)c4cccs4)cnn23)c1)C1CCCCC1` [Example 86], the IC50 was in the range of 1 to 10 µM.
Regarding `CCCCCC(=O)Nc1cccc(-c2ccnc3c(C(=O)c4cccs4)cnn23)c1` [Example 153], the IC50 is below 1 µM.
For `C[C@H](N)C(=O)Nc1cccc(-c2ccnc3c(C(=O)c4cccs4)cnn23)c1` [Example 78, N-1-{3-[3-(thien-2-ylcarbonyl)pyrazolo[1,5-a]pyrimidin-7-yl]phenyl}-L-alaninamide], the IC50 fell in the range of 1 to 10 µM.

Staying with this experiment, now noted: Homo sapiens, 80S14, 120 h, read-out: IC50 for 80S14 (uM).
On to `CC(C)(C)C(=O)Nc1cccc(-c2ccnc3c(C(=O)c4ccccc4)cnn23)c1` [Example 242, N-[3-(3-Benzoylpyrazolo[1,5-a]-pyrimidin-7-yl)phenyl]-2,2-dimethyl-propanamide], for which the IC50 lay within 1 to 10 µM.
With `CC(=O)N(C)c1cccc(-c2ccnc3c(C(=O)c4cccs4)cnn23)c1` [Example 238, N-Methyl-N-[3-[3-(2-thienylcarbonyl)-pyrazolo[1,5-a]pyrimidin-7-yl]phenyl}-acetamide], the IC50 is 10 to 50 µM.

Still in this experiment, the particulars now being: Homo sapiens, 80S14, 120 h, read-out: IC50 for 80SI4 (uM).
Consider `C#CCCOC(=O)Nc1cccc(-c2ccnc3c(C(=O)c4cccs4)cnn23)c1` [Example 193, but-3-ynyl 3-[3-(thien-2-ylcarbonyl)pyrazolo[1,5-a]pyrimidin-7-yl]phenylcarbamate], for which the IC50 is below 1 µM.

The experiment is the same for the next values; noted with them: Homo sapiens, 120 h; 80S14 (p21-deficient) cells, 5 days, SRB; class symbols; read-out: IC50 for 80S14.
For `O=C(Nc1cccc(-c2ccnc3c(C(=O)c4ccco4)cnn23)c1)c1ccccc1` [Example 300, N-{3-[3-(2-Furoyl)pyrazolo[1,5-a]pyrimidin-7-yl]phenyl}benzamide], the IC50 was in the range of 1 to 10 µM.
Regarding `O=[N+]([O-])c1cccc(-c2ccnc3c(-c4ccsc4)cnn23)c1` [Example 325, 7-(3-Nitrophenyl)-3-(3-thienyl)pyrazolo[1,5-a]pyrimidine], the IC50 lay in the range of 10 to 50 µM.
Turning to `Cc1cc(C)cc(-c2cnn3c(-c4cccc(-c5nnn(CCN6CCCCC6)n5)c4)ccnc23)c1` [Example 499, 3-(3,5-Dimethylphenyl)-7-{3-[2-(2-piperidin-1-ylethyl)-2H-tetrazol-5-yl]phenyl}pyrazolo[1,5-a]pyrimidine], the IC50 was 1 to 10 µM.
Turning to `CC(CCNc1cccc(-c2ccnc3c(C(=O)c4cccs4)cnn23)c1)c1ccccc1` (stereo not shown) [Example 400, (7-{3-[(3-Phenylbutyl)amino]phenyl}pyrazolo[1,5-a]pyrimidin-3-yl)(thien-2-yl)methanone], the IC50 fell in the range of 1 to 10 µM.
Consider `CCN(C(=O)C1CC1)c1cccc(-c2ccnc3c(C#N)cnn23)c1` [Example 256, N-[3-(3-Cyanopyrazolo[1,5-a]pyrimidin-7-yl)phenyl]-N-ethyl-cyclopropanecarboxamide], for which the IC50 was 10 to 50 µM.
Same read-out and setting: in the case of `CCCCNC(=O)c1cccc(-c2ccnc3c(C(=O)c4cccs4)cnn23)c1` [Example 319, N-Butyl-3-[3-(2-thienylcarbonyl)pyrazolo[1,5-a]pyrimidin-7-yl]benzamide] it was below 1 µM.
As to `COC(=O)c1cccc(-c2ccnc3c(C(=O)c4cccs4)cnn23)c1` [Example 306, Methyl 3-[3-(2-thienylcarbonyl)pyrazolo[1,5-a]pyrimidin-7-yl]benzoate], the IC50 fell in the range of 10 to 50 µM.

Still in this experiment, the particulars now being: Homo sapiens, 120 h; 80S14 p21-deficient cells, 5 days incubation, SRB; read-out: IC50 for 80SI4.
Consider `CCCOC(=O)NCC(=O)Nc1cccc(-c2ccnc3c(C(=O)c4cccs4)cnn23)c1` [Example 114, propyl 2-oxo-2-({3-[3-(thien-2-ylcarbonyl)pyrazolo[1,5-a]pyrimidin-7-yl]phenyl}amino)ethylcarbamate], for which the IC50 lay in the range of 10 to 50 µM.
For `CCC(C)C(=O)NCC(=O)Nc1cccc(-c2ccnc3c(C(=O)c4cccs4)cnn23)c1` (stereo not shown) [Example 130, 2-methyl-N-[2-oxo-2-({3-[3-(thien-2-ylcarbonyl)pyrazolo[1,5-a]pyrimidin-7-yl]phenyl}amino)ethyl]butanamide], the IC50 is 10 to 50 µM.
`O=C(Nc1cccc(-c2ccnc3c(C(=O)c4cccs4)cnn23)c1)c1cccc2ccccc12` [Example 103, N-{3-[3-(thien-2-ylcarbonyl)pyrazolo[1,5-a]pyrimidin-7-yl]phenyl}-1-naphthamide]: the IC50 was below 1 µM.
In the case of `O=C(CNC(=O)C1CCCCC1)Nc1cccc(-c2ccnc3c(C(=O)c4cccs4)cnn23)c1` [Example 129, N-[2-oxo-2-({3-[3-(thien-2-ylcarbonyl)pyrazolo[1,5-a]pyrimidin-7-yl]phenyl}amino)ethyl]cyclohexanecarboxamide], the IC50 lay within 10 to 50 µM.
On the same count and under the same terms, in the case of `CC(OC(=O)Nc1cccc(-c2ccnc3c(C(=O)c4cccs4)cnn23)c1)C1CC1` (stereo not shown) [Example 190, 1-cyclopropylethyl 3-[3-(thien-2-ylcarbonyl)pyrazolo[1,5-a]pyrimidin-7-yl]phenylcarbamate] it was below 1 µM; in that of `COC(=O)[C@@H](NC(=O)Nc1cccc(-c2ccnc3c(C(=O)c4cccs4)cnn23)c1)C(C)C` [Example 4, methyl N-[({3-[3-(thien-2-ylcarbonyl)pyrazolo[1,5-a]pyrimidin-7-yl]phenyl}amino)carbonyl]-L-valinate], below 1 µM; in that of `O=C(c1cccs1)c1cnn2c(-c3cccc(NS(=O)(=O)c4ccccc4)c3)ccnc12` [Example 31, N-{3-[3-(thien-2-ylcarbonyl)pyrazolo[1,5-a]pyrimidin-7-yl]phenyl}benzenesulfonamide], 1 to 10 µM.
Same read-out and setting: under `Cc1cnc2c(C(=O)c3cccs3)cnn2c1-c1cccc(NC(=O)Cc2cccs2)c1` [Example 219, N-{3-[6-methyl-3-(thien-2-ylcarbonyl)pyrazolo[1,5-a]pyrimidin-7-yl]phenyl}-2-thien-2-ylacetamide] stands 10 to 50 µM; under `COc1cccc(CC(=O)Nc2cccc(-c3ccnc4c(C(=O)c5cccs5)cnn34)c2)c1` [Example 107, 2-(3-methoxyphenyl)-N-{3-[3-(thien-2-ylcarbonyl)pyrazolo[1,5-a]pyrimidin-7-yl]phenyl}acetamide], below 1 µM.
Consider `Cc1ccc(S(=O)(=O)Nc2cccc(-c3ccnc4c(C(=O)c5cccs5)cnn34)c2)cc1` [Example 32, 4-methyl-N-{3-[3-(thien-2-ylcarbonyl)pyrazolo[1,5-a]pyrimidin-7-yl]phenyl}benzenesulfonamide], for which the IC50 is below 1 µM.
Consider `O=C(c1cccs1)c1cnn2c(-c3cccc(NC(=O)C(Cl)(Cl)Cl)c3)ccnc12` [Example 49, 2,2,2-trichloro-N-{3-[3-(thien-2-ylcarbonyl)pyrazolo[1,5-a]pyrimidin-7-yl]phenyl}acetamide], for which the half-maximal inhibitory concentration (IC50) was in the range of 1 to 10 µM.
Consider `CC(C)CC(C)OC(=O)Nc1cccc(-c2ccnc3c(C(=O)c4cccs4)cnn23)c1` (stereo not shown) [Example 185, 1,3-dimethylbutyl3-[3-(thien-2-ylcarbonyl)pyrazolo[1,5-a]pyrimidin-7-yl]phenylcarbamate], for which the half-maximal inhibitory concentration (IC50) was in the range of 1 to 10 µM.
Turning to `CCCCCCCOc1ccc(C(=O)Nc2cccc(-c3ccnc4c(C(=O)c5cccs5)cnn34)c2)cc1` [Example 91, 4-(heptyloxy)-N-{3-[3-(thien-2-ylcarbonyl)pyrazolo[1,5-a]pyrimidin-7-yl]phenyl}benzamide], the IC50 lay in the range of 10 to 50 µM.

The record behind these values is patent US20060063784A1, “Method of using substituted pyrazolo [1,5-a] pyrimidines” (priority 2004, published 2006).
